Source: the supplement of paper PMC10307832

Tests used:
Test in all cases: relative viability (nuclei count vs DMSO), 5 days (fraction); higher = more cells survive
AZ3146 + Tozasertib = compound: CN1CCC(CC1)OC2=CC(=C(C=C2)NC3=NC=C4C(=N3)N(C(=O)N4C)C5CCCC5)OC [AZ3146] + Cc1cc(Nc2cc(N3CCN(C)CC3)nc(Sc3ccc(NC(=O)C4CC4)cc3)n2)n[nH]1 [Tozasertib] (partner 0.1 µM)
In short: (§1)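 Lung cancer cell lines were seeded in 1536-well plates and dosed by pin tool the next day, with either a single drug or a fixed anchor-drug dose combined with five library-drug doses (not always all listed) spaced in √10 steps. Five days later, one step fixed the cells and stained their nuclei (final 0.05% Triton X-100, 1% formaldehyde, 1 ug/ml Hoechst), and nuclei were counted on 4× images. Relative viability is the nuclei count in treated wells divided by the count in vehicle wells, and each value is the median of duplicate plates.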

AZ3146 + Alpelisib = compound: CN1CCC(CC1)OC2=CC(=C(C=C2)NC3=NC=C4C(=N3)N(C(=O)N4C)C5CCCC5)OC [AZ3146] + Cc1nc(NC(=O)N2CCC[C@H]2C(N)=O)sc1-c1ccnc(C(C)(C)C(F)(F)F)c1 [Alpelisib] (partner 2 µM)
In short: as §1

GSK-J4 + Lapatinib = compound: CCOC(=O)CCNc1cc(N2CCc3ccccc3CC2)nc(-c2ccccn2)n1 [GSK-J4] + CS(=O)(=O)CCNCc1ccc(-c2ccc3ncnc(Nc4ccc(OCc5cccc(F)c5)c(Cl)c4)c3c2)o1 [Lapatinib] (partner 2 µM)
In short: as §1

AZ3146 + Olaparib = compound: CN1CCC(CC1)OC2=CC(=C(C=C2)NC3=NC=C4C(=N3)N(C(=O)N4C)C5CCCC5)OC [AZ3146] + O=C(c1cc(Cc2n[nH]c(=O)c3ccccc23)ccc1F)N1CCN(C(=O)C2CC2)CC1 [Olaparib] (partner 8 µM)
In short: as §1

Cell Line	relative viability (AZ3146 + Tozasertib; first compound 0.08 µM)	relative viability (AZ3146 + Tozasertib; first compound 0.253 µM)	relative viability (AZ3146 + Tozasertib; first compound 0.8 µM)	relative viability (AZ3146 + Tozasertib; first compound 2.53 µM)	relative viability (AZ3146 + Tozasertib; first compound 8 µM)	relative viability (AZ3146 + Alpelisib; first compound 0.08 µM)	relative viability (AZ3146 + Alpelisib; first compound 0.253 µM)	relative viability (AZ3146 + Alpelisib; first compound 0.8 µM)	relative viability (AZ3146 + Alpelisib; first compound 2.53 µM)	relative viability (AZ3146 + Alpelisib; first compound 8 µM)	relative viability (GSK-J4 + Lapatinib; first compound 0.5 µM)	relative viability (GSK-J4 + Lapatinib; first compound 1.581 µM)	relative viability (GSK-J4 + Lapatinib; first compound 5 µM)	relative viability (GSK-J4 + Lapatinib; first compound 15.81 µM)	relative viability (GSK-J4 + Lapatinib; first compound 50 µM)	relative viability (AZ3146 + Olaparib; first compound 0.08 µM)	relative viability (AZ3146 + Olaparib; first compound 0.253 µM)	relative viability (AZ3146 + Olaparib; first compound 0.8 µM)	relative viability (AZ3146 + Olaparib; first compound 2.53 µM)	relative viability (AZ3146 + Olaparib; first compound 8 µM)
201T	0.612	0.858	0.837	0.651	0.473	0.943	0.918	0.954	0.993	1	0.988	1.08	0.983	1.04	0.992	0.855	0.829	0.827	0.874	0.805
A549						0.716	0.794	0.718	0.732	0.308	0.952	1.03		1.1	0.902	0.203	0.268	0.419	0.43	0.269
A-427	0.2	0.191	0.157	0.19	0.205	1.04	1.06	1.01	0.93	1.02	1.05		0.913	0.976	0.847	0.689	0.813	0.758	0.794	0.652
ABC-1	0.173	0.178	0.181	0.135	0.2	0.968	0.981	1.23	1	1.09	1.03	1.17	1.21	0.935	1.05	0.744	0.707	0.714	0.78	0.606
BEN	0.402	0.509	0.493	0.512	0.406		0.967	1.06	1.07	0.895	0.657	0.622		0.764	0.635		1.07	1.12	0.899	0.917
CAL-12T	0.263	0.3	0.209	0.247	0.235	1.21	1.31	1.36	1.31	0.765	0.586	0.489	0.778	0.55	0.391	0.733	0.822	0.717	0.658	0.6
COR-L23	0.193	0.222	0.161	0.144	0.173	0.705	0.74	0.766	0.824	0.639	0.881	0.917		0.927	0.615	0.28	0.363	0.353	0.361	0.324
COR-L 105	0.409	0.335	0.304	0.293	0.309	1.01	1.15	0.86	1.1	0.665	0.398	0.317	0.35	0.319	0.35	0.654	0.717	0.503	0.696	0.648
Calu-6						1.01	1.01	1.04	1.03	0.787	1	1.11	1.05	1.03	1.04	0.55	0.505	0.535	0.551	0.5
ChaGo-K-1	0.192	0.229	0.22	0.235	0.206											0.352	0.436	0.361	0.421	0.357
EBC-1						0.927	0.828	0.731	0.882	0.711	0.199	0.244	0.243	0.235	0.209	0.699	0.71	0.671	0.634	0.397
EKVX	0.314	0.399	0.364	0.378	0.232	0.865	0.802	0.716	0.981	1	0.216	0.205	0.261	0.197	0.171	0.798	0.828	0.811	1.07	0.798
EMC-BAC-2	0.222	0.269	0.307	0.277	0.233	0.718	0.718	0.768	0.743	0.84	0.925	0.928	0.802	0.824	0.806	0.407	0.522	0.5	0.531	0.432
EPLC-272H		0.237	0.184	0.217	0.138	0.706	0.925	0.933	0.973	0.964	0.981		0.919	0.89	0.679	0.892	0.841	0.878	0.914	0.643
H3255	0.598	0.475	0.61	0.646	0.196	0.749	0.649	0.664	0.754	0.656	0.238	0.255	0.271	0.206	0.493	0.498	0.526	0.605	0.564	0.564
HARA	0.115	0.15	0.0956	0.0781	0.0801	0.629	0.785	0.883	0.909	0.725	0.729	0.706		0.699	0.554	0.618	0.926	0.818	0.924	0.841
HCC-15	0.374	0.426	0.263	0.221	0.102	0.939	0.899	0.864	0.822	0.893	0.827	0.436	0.724	0.754	0.644	0.618	0.737	0.726	0.725	0.648
HCC-44	0.502	0.944	0.904	0.372	0.315	0.676	0.805	0.797	0.807	0.859	0.964	0.647	0.909	1.07	0.957	0.996	0.991	1.06	0.964	0.942
HCC-78	0.315	0.449	0.347	0.404	0.44		0.268	0.224	0.367	0.321	0.707	0.684	0.846		0.738		0.863	0.765	0.767	0.798
HCC-366	0.0936	0.1	0.0606	0.044	0.0336	0.357	0.379	0.419	0.433	0.393	0.969	0.786		0.937	0.602	0.304	0.388	0.401	0.399	0.302

Cell Line	relative viability (AZ3146 + Tozasertib; first compound 0.08 µM)	relative viability (AZ3146 + Tozasertib; first compound 0.253 µM)	relative viability (AZ3146 + Tozasertib; first compound 0.8 µM)	relative viability (AZ3146 + Tozasertib; first compound 2.53 µM)	relative viability (AZ3146 + Tozasertib; first compound 8 µM)	relative viability (AZ3146 + Alpelisib; first compound 0.08 µM)	relative viability (AZ3146 + Alpelisib; first compound 0.253 µM)	relative viability (AZ3146 + Alpelisib; first compound 0.8 µM)	relative viability (AZ3146 + Alpelisib; first compound 2.53 µM)	relative viability (AZ3146 + Alpelisib; first compound 8 µM)	relative viability (GSK-J4 + Lapatinib; first compound 0.5 µM)	relative viability (GSK-J4 + Lapatinib; first compound 1.581 µM)	relative viability (GSK-J4 + Lapatinib; first compound 5 µM)	relative viability (GSK-J4 + Lapatinib; first compound 15.81 µM)	relative viability (GSK-J4 + Lapatinib; first compound 50 µM)	relative viability (AZ3146 + Olaparib; first compound 0.08 µM)	relative viability (AZ3146 + Olaparib; first compound 0.253 µM)	relative viability (AZ3146 + Olaparib; first compound 0.8 µM)	relative viability (AZ3146 + Olaparib; first compound 2.53 µM)	relative viability (AZ3146 + Olaparib; first compound 8 µM)
HCC-827	0.45	0.454	0.414	0.427	0.368	1.02	0.976	1.08	0.921	0.968	0.197	0.229	0.207	0.212	0.16	0.624	0.612	0.625	0.568	0.785
HOP-62	0.325	0.447	0.345	0.348	0.291	0.896	0.96	0.796	1.07	0.832	0.701	0.689	0.846	1.02	0.86	0.48	0.345	0.44	0.361	0.359
IA-LM						0.638	0.627	0.864	0.714	0.763	0.767	0.598	0.862	0.624	0.0952	0.775	0.808	0.91	0.919	0.486
LC-2-ad	0.323	0.44	0.424	0.365	0.269	0.793	0.797	0.866	0.956	0.792	1.04	0.743	0.809	0.904	0.664	0.697	0.724	0.697	0.733	0.658
LCLC-97TM1	0.206	0.216	0.208	0.228	0.146			0.245	0.3	0.247			1.33	0.722	0.885	0.52	0.535	0.458	0.447	0.345
LCLC-103H	0.418	0.523	0.498	0.45	0.409	0.985	0.886	0.859	1.03	0.99						0.755	0.765	0.778	0.749	0.745
LK-2	0.175	0.186	0.188	0.157	0.196	0.907			1.16	1.66	1.04	0.905	1.12	0.646	0.885	0.61	0.586	0.559	0.672	0.831
LOU-NH91	0.453	0.668	0.664	0.525	0.365	0.662	0.663	0.681	0.711	0.672	0.688	0.754	0.626	0.625	0.64	0.922	0.91	0.972	0.904	0.925
NCI-H441	0.676	0.701	0.595	0.588	0.266	0.58	0.719	0.675	0.787	0.647						0.519	0.645	0.603	0.678	0.523
NCI-H522	0.533	0.512	0.582	0.455	0.587											0.68	0.685	0.515	0.695	0.596
NCI-H1299						1	1.01	1.02	1.07	1.08	0.861	0.924	0.851	0.953	0.875	0.932	0.941	0.944	0.938	0.789
NCI-H1563						0.924	0.87	1	0.927	0.882	0.821	0.621	0.784	0.834	0.892					
NCI-H1623	0.46	0.404	0.461	0.481	0.4															
NCI-H1648		0.303	0.54	0.58	0.406													0.987	1.18	0.802
NCI-H1650	0.345	0.349	0.242	0.314	0.255						0.751	0.174	0.731	0.634	0.327	0.857	0.722	0.752	0.736	0.621
NCI-H1703						0.374	0.34	0.326	0.437	0.29	0.937	0.912	0.84	1.11	0.695	0.424	0.383	0.517	0.346	0.402
NCI-H1792						0.577	0.75	0.762	0.667	0.718	0.932	0.705	0.835	0.782	0.692	0.351	0.522	0.384	0.42	0.434
NCI-H2342	0.329	0.654	0.518	0.505	0.353											0.464	0.474	0.529	0.487	0.695
SW 900	0.466	0.625	0.399	0.326	0.333											0.706		0.785	0.846	0.754
